{"source": "patent US11952369B2", "about": "(Kadmon Corporation, LLC, priority 2022, dated 2024)", "key": {"[1]": {"assay": "Phase 1 study part 2: metabolite identification and profiling in plasma, urine and feces", "type": "in vivo, human", "conditions": "mean across subjects", "protocol": "To determine the most appropriate sampling pools for metabolite identification/profiling, plasma, urine, and fecal samples were pooled based on mass balance data obtained as described above. Plasma samples were pooled for individual subjects by time points that represented at least 80% of the plasma total radioactivity, as well as pooled across subjects before dosing and at 4-hour and 8-hour time points. Urine samples were pooled from 0 to 24 hours for individual subjects and across subjects for predose and 0- to 6-hour intervals. Fecal samples were pooled for individual subjects depending on time points that represented at least 80% of the […] total radioactivity and across subjects at 0- to 24- and 24- to 48-hour intervals.\n[^14C]-belumosudil concentrations were quantified by LC-MS/MS. Chemical structures were then identified for those radioactive components that accounted for >10% of circulating radioactivity in plasma and >10% of the dose in urine and feces. Radioactive components that represented <10% of circulating radioactivity in plasma and <10% of the dose in urine and feces were also identified. Metabolite identification was then performed using accurate mass positive and negative ion full scan and positive ion product ion analyses. […] Any identified components were compared with [^14C] radiochromatograms to identify the metabolite. Predose plasma and urine pools were used to correct for endogenous components during metabolite identification."}, "[2]": {"assay": "Phase 1 study: safety assessments", "type": "in vivo, human", "protocol": "Safety was assessed throughout the study by AEs, vital signs, electrocardiograms, physical examinations, and clinical laboratory tests. The safety population included all subjects who received at least 1 dose of the study drug (oral or IV) in either part of the study."}, "cytochrome P450 CYP3A4": {"biological_target": "cytochrome P450 CYP3A4 (Homo sapiens, UniProt P08684)", "sequence (P08684 whole entry)": "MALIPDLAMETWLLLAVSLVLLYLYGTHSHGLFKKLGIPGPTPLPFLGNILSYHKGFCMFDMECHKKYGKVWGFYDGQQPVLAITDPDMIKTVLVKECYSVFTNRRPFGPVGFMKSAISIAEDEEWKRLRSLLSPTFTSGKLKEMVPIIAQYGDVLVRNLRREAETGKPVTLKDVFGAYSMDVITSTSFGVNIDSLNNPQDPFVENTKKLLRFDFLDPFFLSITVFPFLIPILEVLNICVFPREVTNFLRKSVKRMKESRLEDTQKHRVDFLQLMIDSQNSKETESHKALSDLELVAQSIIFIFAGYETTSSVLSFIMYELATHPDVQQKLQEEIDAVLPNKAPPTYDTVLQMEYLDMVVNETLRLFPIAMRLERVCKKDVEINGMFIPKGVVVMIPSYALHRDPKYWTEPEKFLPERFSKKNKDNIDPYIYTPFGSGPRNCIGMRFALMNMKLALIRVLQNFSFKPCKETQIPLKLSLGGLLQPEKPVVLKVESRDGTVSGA", "assay": "In vitro assessments of belumosudil metabolism", "type": "in vitro ADME"}, "[3]": {"assay": "Phase 1 study part 1: absolute bioavailability, oral 200-mg tablet plus [14C]-belumosudil IV microtracer, plasma PK", "type": "in vivo, human", "conditions": "for F, AUCinf (absolute bioavailability, AUCinf,oral/AUCinf,IV): dose-adjusted", "protocol": "This was a single-center, nonrandomized, open-label, 2-part study in 5 healthy male subjects aged 30 to 65 years. All oral doses were administered following an overnight fast and a standard breakfast on the day of dosing.\n(timed to occur at the expected maximum concentration [Cmax]). To determine absolute bioavailability, a microtracer dose was chosen as it negates the need for an IV formulation with good stability. Additionally, due to use of a very low dose, further nonclinical studies such as local tolerance and general toxicology studies were not warranted.\nBlood samples for IV [^14C]-belumosudil PK analysis and total radioactivity were collected at −0.25, −0.16, −0.08, 0, 0.08, 0.16, 0.25, 0.5, 0.75, 1, 1.5, 2, 3, 4, 5, 6, 8, 10, 12, 22, 34, and 46 hours after the end of infusion (EOI). All samples were processed to plasma within 30 minutes of collection by centrifugation at 2000 g for 10 minutes at 4° C., and\nTotal [^14C]-belumosudil concentrations were determined by accelerator mass spectrometry (AMS). […] Selected samples were diluted with commercial plasma to ensure that concentrations would fall within the acceptable range for AMS analysis. The samples were converted to graphite through combustion to CO2 followed by reduction to graphite. The graphite targets were then analyzed by AMS (LLOQ of 0.00489, 0.00557, 0.00485, 0.00402, and 0.00372 ng equiv/mL for individual subjects). All ^14C data was background-corrected based on predose [^14C]-belumosudil concentrations.\nEluate fractions corresponding to [^14C]-belumosudil were collected before AMS analysis (LLOQ of 1.55 pg equiv/mL).\nPK parameter estimates were used to calculate absolute bioavailability and metabolite-to-parent ratio."}, "ROCK2": {"biological_target": "T1, ROCK2 (Rattus norvegicus, UniProt Q62868)", "T1 construct": "Full length rat ROCK1 and ROCK2 proteins were isolated from various tumor cell lines or tissues by immunoabsorption; endogenous in cells", "T1 sequence (Q62868 whole entry)": "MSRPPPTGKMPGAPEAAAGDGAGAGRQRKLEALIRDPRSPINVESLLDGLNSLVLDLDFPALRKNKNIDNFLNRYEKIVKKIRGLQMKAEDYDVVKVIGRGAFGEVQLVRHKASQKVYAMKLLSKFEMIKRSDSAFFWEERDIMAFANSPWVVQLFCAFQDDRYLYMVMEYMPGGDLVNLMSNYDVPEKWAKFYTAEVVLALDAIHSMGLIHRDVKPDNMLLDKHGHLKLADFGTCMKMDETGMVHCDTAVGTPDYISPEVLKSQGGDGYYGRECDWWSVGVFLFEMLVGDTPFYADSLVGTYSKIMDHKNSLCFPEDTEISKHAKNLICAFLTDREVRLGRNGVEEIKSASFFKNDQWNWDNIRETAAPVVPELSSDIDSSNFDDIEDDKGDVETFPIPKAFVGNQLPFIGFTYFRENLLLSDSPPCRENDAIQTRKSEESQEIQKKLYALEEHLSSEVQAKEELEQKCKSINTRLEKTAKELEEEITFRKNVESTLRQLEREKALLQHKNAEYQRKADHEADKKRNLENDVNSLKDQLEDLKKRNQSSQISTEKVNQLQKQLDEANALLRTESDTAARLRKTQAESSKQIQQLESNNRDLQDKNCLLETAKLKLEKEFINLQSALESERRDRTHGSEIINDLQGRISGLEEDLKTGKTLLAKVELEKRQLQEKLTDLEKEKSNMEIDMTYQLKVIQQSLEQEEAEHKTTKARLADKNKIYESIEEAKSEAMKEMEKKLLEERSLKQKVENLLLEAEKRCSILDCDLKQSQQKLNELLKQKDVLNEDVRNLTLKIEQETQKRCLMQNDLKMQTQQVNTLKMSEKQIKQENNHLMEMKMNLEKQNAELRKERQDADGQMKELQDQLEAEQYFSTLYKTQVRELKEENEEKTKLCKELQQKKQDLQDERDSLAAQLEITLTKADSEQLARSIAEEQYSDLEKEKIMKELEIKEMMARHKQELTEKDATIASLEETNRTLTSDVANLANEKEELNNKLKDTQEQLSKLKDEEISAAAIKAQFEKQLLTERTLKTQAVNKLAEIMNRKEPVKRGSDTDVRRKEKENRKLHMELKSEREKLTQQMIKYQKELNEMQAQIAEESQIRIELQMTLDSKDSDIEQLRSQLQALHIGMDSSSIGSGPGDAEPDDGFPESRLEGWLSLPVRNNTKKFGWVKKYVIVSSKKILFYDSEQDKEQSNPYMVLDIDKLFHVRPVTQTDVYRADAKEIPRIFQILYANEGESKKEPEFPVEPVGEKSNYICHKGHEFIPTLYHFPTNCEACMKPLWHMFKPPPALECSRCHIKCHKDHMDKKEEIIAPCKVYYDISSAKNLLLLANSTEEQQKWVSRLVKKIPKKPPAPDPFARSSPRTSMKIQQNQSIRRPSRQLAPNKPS", "assay": "Inhibition of ROCK2 enzymatic activity, immunoabsorbed full length enzyme, S6 kinase substrate peptide, [γ33P]ATP", "type": "biochemical", "conditions": "for Ki: ROCK2", "protocol": "Full length rat ROCK1 and ROCK2 proteins were isolated from various tumor cell lines or tissues by immunoabsorption to 24-well microtiter plates pre-coated with antibodies specific for each isozyme. Reactions were initiated by the addition of S6 kinase substrate peptide, [γ33P]ATP, and study drug, and incubated at 37° C. for 20 minutes. Reactions were terminated by addition of phosphoric acid and the radioactivity was quantified using standard methods."}, "Solubility": {"assay": "Solubility", "type": "physicochemical", "conditions": "in vitro assessments"}, "[4]": {"assay": "Metabolite exposure quantified in clinical trials of the belumosudil development program", "type": "in vivo, human", "conditions": "clinical trials across the belumosudil development program"}, "[5]": {"conditions": "arithmetic mean (standard deviation), Part 1, belumosudil after oral 200-mg tablet"}, "[6]": {"conditions": "arithmetic mean (standard deviation), Part 1, oral 200-mg tablet vs IV microtracer"}, "[7]": {"conditions": "geometric mean (geometric CV %), Part 1, belumosudil after oral 200-mg tablet"}, "[8]": {"conditions": "geometric mean (geometric CV %), Part 1, oral 200-mg tablet vs IV microtracer"}}, "note": "Where two headings read alike, the source gives them in different places."}
{"smiles": "CC(C)NC(=O)COc1cccc(-c2nc(Nc3ccc4[nH]ncc4c3)c3ccccc3n2)c1", "note": "[Belumosudil, 2-{3-[4-(1H-indazol-5-ylamino)-2-quinazolinyl]phenoxy}-N-(propan-2-yl) acetamide]", "values": [{"measurement": "% ROI, feces (mean % contribution to total sample radioactivity)", "setting": "[1]", "value": "(29.60) %"}, {"measurement": "% ROI, feces (mean % contribution to total sample radioactivity)", "setting": "[1]; listed as belumosudil", "value": 30, "unit": "%"}, {"measurement": "% ROI, plasma (mean % contribution to total plasma radioactivity)", "setting": "[1]", "value": "P6 (64.17) %"}, {"measurement": "% ROI, plasma (mean % contribution to total plasma radioactivity)", "setting": "[1]; listed as belumosudil", "value": 64, "unit": "%"}, {"measurement": "laboratory, vital sign, electrocardiogram, physical examination findings", "setting": "[2]; either part of the study", "value": "No clinically significant laboratory, vital sign, electrocardiogram, or physical examination findings"}, {"measurement": "deaths, serious AEs, severe AEs, AEs leading to withdrawal", "setting": "[2]; healthy male subjects, both parts of the study", "value": "no deaths, serious AEs, AEs of severe intensity, or AEs leading to subject withdrawal"}, {"measurement": "treatment-emergent AE", "setting": "[2]; part 1, 200-mg tablet followed by [14C]-belumosudil microtracer infusion, one event, resolved spontaneously 2.5 hours after onset", "value": "mild, possibly related rash"}, {"measurement": "treatment-emergent AEs", "setting": "[2]; part 2, 200-mg [14C]-belumosudil capsule", "value": "no treatment-emergent AEs were reported"}, {"measurement": "enzyme dependence of metabolism", "setting": "cytochrome P450 CYP3A4", "value": "primarily dependent on cytochrome P450 CYP3A4 activity"}, {"measurement": "time at which peak belumosudil concentrations were reached after the oral dose", "setting": "[3]; Part 1, oral 200-mg tablet", "value": 3, "unit": "h"}, {"measurement": "AUCextrap", "setting": "[3]; [5]", "value": "2.18 (0.919) %"}, {"measurement": "AUCinf", "setting": "[3]; [5]", "value": "8890 (4240) ng or ng equiv × h/mL"}, {"measurement": "AUClast", "setting": "[3]; [5]", "value": "8730 (4270) ng or ng equiv × h/mL"}, {"measurement": "Clearanance (apparent clearance)", "setting": "[3]; [5]", "value": "423 (126) mL/min"}, {"measurement": "Cmax", "setting": "[3]; [5]", "value": "1960 (649) ng or ng equiv/mL"}, {"measurement": "F, AUCinf (absolute bioavailability)", "setting": "[3]; [6]", "value": "64.5 (10.4) %"}, {"measurement": "F, Cmax (bioavailability)", "setting": "[3]; [6]", "value": "23.8 (2.21) %"}, {"measurement": "AUCextrap", "setting": "[3]; [7]", "value": "1.95 (64.6); %"}, {"measurement": "AUCinf", "setting": "[3]; [7]", "value": "8300 (40.2); ng or ng equiv × h/mL"}, {"measurement": "AUClast", "setting": "[3]; [7]", "value": "8120 (41.2); ng or ng equiv × h/mL"}, {"measurement": "Clearanance (apparent clearance)", "setting": "[3]; [7]", "value": "402 (40.2); mL/min"}, {"measurement": "Cmax", "setting": "[3]; [7]", "value": "1870 (36.7); ng or ng equiv/mL"}, {"measurement": "F, Cmax (bioavailability)", "setting": "[3]; [8]", "value": "23.7(9.3); %"}, {"measurement": "F, AUCinf (absolute bioavailability, AUCinf,oral/AUCinf,IV)", "setting": "[3]; [8]", "value": "63.7 (17.3); %"}, {"measurement": "F, AUCinf (absolute bioavailability, AUCinf,oral/AUCinf,IV)", "setting": "[3]; geometric mean (geometric CV %), Part 1, oral 200-mg tablet vs IV microtracer, listed as belumosudil", "value": 63.7, "unit": "%"}, {"measurement": "half-life", "setting": "[3]; male, human, plasma, other: intravenous and oral, IV and oral dosing comparable, read-out: half-life values following IV and oral dosing", "value": "5 to 6", "unit": "h"}, {"measurement": "Tmax", "setting": "[3]; male, human, plasma, po, 200 mg", "value": 2, "unit": "h"}, {"measurement": "half-life", "setting": "[3]; male, human, plasma, po, 200 mg, arithmetic mean (standard deviation), Part 1, belumosudil after oral 200-mg tablet, read-out: T1/2 (converted)", "value": 6.05, "unit": "h"}, {"measurement": "half-life", "setting": "[3]; male, human, plasma, po, 200 mg, geometric mean (geometric CV %), Part 1, belumosudil after oral 200-mg tablet, read-out: T1/2 (terminal half-life) (converted)", "value": 5.3, "unit": "h"}, {"measurement": "Ki", "setting": "ROCK2", "value": "40 ± 5", "unit": "nM"}, {"measurement": "pH dependence of solubility", "setting": "Solubility", "value": "pH dependent"}]}
{"smiles": "NC(=O)COc1cccc(-c2nc(Nc3ccc4[nH]ncc4c3)c3ccccc3n2)c1", "note": "[KD025m1, 2-(3-(4-(1H-indazol-5-ylamino)quinazolin-2-yl)phenoxy)acetamide]", "values": [{"measurement": "Ki", "setting": "ROCK2", "value": "55 ± 2", "unit": "nM"}, {"measurement": "inhibition of ROCK2 (Ki) relative to belumosudil", "setting": "ROCK2; fold lower inhibition than belumosudil", "value": "comparable"}, {"measurement": "exposure relative to the parent", "setting": "[4]", "value": "< 5", "unit": "%"}]}
